Values of other authors, collected in patent publication US20070224228A1, “Soap Bars Having Ultraviolet Radiation Protection” (priority 2004, published 2007).

Conditions: partition coefficient; solvents octanol and water; values printed as approximate (˜)

Log P | Molecule
~5.7 | Cyclomethicone
~6.9 | CCCCC(CC)COC(=O)C(C#N)=C(c1ccccc1)c1ccccc1 (centres unmarked) [Octocrylene]
